Where two headings read alike, the source gives them in different places.
Columns and labels:
[1] = test system: human large intestine cancer cell line (HCT-116); assay: Human large intestine cancer (HCT-116) cell growth inhibition test; format: cell-based
Outline: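 HCT-116 cells were seeded at 0.5 to 2.0×10^3 cells/well in McCoy's 5A with 10% FBS and dosed with compound at 0.1% final DMSO after overnight culture. Growth was measured by sulforhodamine B absorbance after 3 days. GI50 was calculated from the inhibition rate at each concentration.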

IL-17 production = assay: Human PBMC various-stimulant cocktail-induced IL-17 production inhibition test; format: cell-based; conditions: 120 h, human T-cell suspension from PBMC, culture for 5 days, ELISA
Source text: PBMC was separated and collected by using Ficoll-Paque (manufactured by GE Healthcare Japan Corp.) from blood collected from a healthy human adult in the presence of heparin. The collected PBMC was further cultured in a flask for a certain time, and then, non-adherent cells in the supernatant were collected and used as a T-cell suspension.
A RPMI1640 medium containing 10% FBS, 1% penicillin/streptomycin/amphotericin B, essential amino acids, and pyruvic acid and containing a test compound dissolved in DMSO, a human CD28 antibody, a human IFN-γ antibody, a human IL-4 antibody, human IL-6, human IL-23, human IL-1β, and human TGF-β was added at 100 μL/well to T cell Activation Plate Anti-Human CD3 96-well plate. Subsequently, 100 μL of a T-cell suspension adjusted to 2×10^5 cells/mL was added to each well (final DMSO concentration: 0.1%). Only DMSO was added to wells not supplemented with the test compound. After culture for 5 days in a carbon dioxide incubator, the culture supernatant was collected and stored at −20° C. until IL-17 content measurement.
In the measurement of an IL-17 content in the culture supernatant, a sandwich ELISA kit (Quantikine Human IL-17, manufactured by R&D Systems, Inc.) was used. The IL-17 content of each sample was calculated from the calibration curve of Standard IL-17 included in the kit. […] The concentration of the test compound necessary for inhibiting 50% of IL-17 production (IC50 value) was calculated from the concentration of the added test compound and the rate of inhibition of IL-17 production by the test compound by using EXSUS (version 8.1.0, manufactured by CAC Exicare Corp.).

[2] = test system: human large intestine cancer cell (HCT 116) tumor; assay: Tumor growth inhibition test in HCT 116-subcutaneously transplanted nude mouse; format: in vivo; conditions: dose of 100 mg/kg, repeated oral administration, HCT-116 in female BALB nude mice, control group = 100%, read-out: rate of suppression of tumor volume
Experimental: A human large intestine cancer cell line (HCT-116) was cultured in a McCoy's 5A medium containing 10% FBS and 1% penicillin/streptomycin/amphotericin B and adjusted to 1.0×10^8 cells/mL with PBS or Hanks solution (HBSS(−)). The prepared cell suspension was subcutaneously injected at 0.1 mL/mouse to the right abdomens of female BALB nude mice (supplied by Charles River Laboratories Japan, Inc.). After rearing for a certain period, the long diameter (mm) and short diameter (mm) of tumor were measured with electronic calipers, and the tumor volume was calculated according to the following expression: Tumor volume (mm^3)=(Long diameter)×(Short diameter)×(Short diameter)×0.5
Individuals whose tumor volume was within the range of 50 to 200 mm^3 were selected and grouped such that the tumor volume was almost equivalent, then a test compound or only a solvent was orally administered in a repeated manner, and the body weights and tumor volume were measured. A test compound was suspended in a 0.5 w/v % aqueous methylcellulose solution (0.5% MC) (manufactured by Wako Pure Chemical Industries, Ltd.) and orally administered at 10 mL/kg in a repeated manner. When the tumor volume of the control group was defined as 100%, the rate of suppression of tumor volume (%) at each dose of the test compound was calculated.

[3] = HCT-116 (row of Table 50), read-out: GI50 value (concentration necessary for inhibiting 50% of cell growth)
[4] = HCT-116, 72 h, culture for 3 days, sulforhodamine B, read-out: GI50 value, HCT-116 cell growth inhibition

SMILES | GI50 [1, 3] [nM] | GI50 [1, 4] [nM] | IC50 (IL-17 production) [nM] | inhibition in vivo at 100 mg/kg [2] [%]
Cc1ccc(C)c(NC(=O)N2Cc3c(NC(=O)C4([Si](C)(C)C)CCC4)n[nH]c3C2(C)C)c1F [IV-669, N-(2-Fluoro-3,6-dimethylphenyl)-6,6-dimethyl-3-[1-(trimethylsilyl)cyclobutanecarboxamido]-4,6-dihydropyrrolo[3,4-c]pyrazole-5(1H)-carboxamide] | < 300 | ≤ 100 | ≤ 100 | ≥ 50
CC1(C)c2[nH]nc(NC(=O)C3([Si](C)(C)C)CCC3)c2CN1C(=O)Nc1c(F)ccc2ccoc12 [IV-1049, N-(6-Fluorobenzofuran-7-yl)-6,6-dimethyl-3-[1-(trimethylsilyl)cyclobutanecarboxamido]-4,6-dihydropyrrolo[3,4-c]pyrazole-5 (1H)-carboxamide] | < 300 | ≤ 100 | ≤ 100 | ≥ 50
